Columns and labels:
[1] = molecular target: T1, Extended spectrum beta-lactamase CTX-M-71 (Klebsiella pneumoniae) (UniProt C8YUV9); experiment: Ratio of Kcat to Km for Klebsiella pneumoniae AH24-270 CTX-M-71 beta-lactamase; parameters: unit not given here
T1 sequence (whole entry): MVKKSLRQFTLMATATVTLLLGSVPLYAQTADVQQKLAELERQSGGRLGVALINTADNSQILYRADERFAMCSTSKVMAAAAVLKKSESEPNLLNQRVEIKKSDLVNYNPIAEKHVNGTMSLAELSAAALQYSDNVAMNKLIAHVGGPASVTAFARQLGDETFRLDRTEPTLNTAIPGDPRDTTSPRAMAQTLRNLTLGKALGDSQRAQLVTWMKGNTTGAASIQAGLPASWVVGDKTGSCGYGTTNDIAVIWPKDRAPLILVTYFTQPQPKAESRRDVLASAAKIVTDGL

[2] = molecular target: Beta-lactamase AH27 CTX-M-15 (Klebsiella pneumoniae) (UniProt Q2PUH3); experiment: Ratio of Kcat to Km for Klebsiella pneumoniae AH27 CTX-M-15 beta-lactamase; parameters: unit not given here

`CCN1CCN(C(=O)N[C@@H](C(=O)N[C@@H]2C(=O)N3[C@@H]2SC(C)(C)[C@@H]3C(=O)O)c2ccccc2)C(=O)C1=O` gave a Ratio [1] of 8.4.
Work on `CC(C)(O/N=C(\C(=O)N[C@@H]1C(=O)N2C(C(=O)[O-])=C(C[n+]3ccccc3)CS[C@H]12)c1csc(N)n1)C(=O)O` yielded a Ratio [1] of 0.0038 and a Ratio [2] of 0.0186.
In the case of `CO/N=C(\C(=O)N[C@@H]1C(=O)N2C(C(=O)O)=C(COC(C)=O)CS[C@H]12)c1csc(N)n1`, the Ratio [1] is reported as 0.5 and the Ratio [2] is reported as 6.77.
`C[C@H]1[C@H](NC(=O)/C(=N\OC(C)(C)C(=O)O)c2csc(N)n2)C(=O)N1S(=O)(=O)O` showed a Ratio [1] of 0.084.
In the case of `O=C(Cc1cccs1)N[C@@H]1C(=O)N2C(C(=O)[O-])=C(C[n+]3ccccc3)CS[C@H]12`, the Ratio [1] is reported as 3.8 and the Ratio [2] is reported as 4.82.
Compound `CO/N=C(\C(=O)N[C@@H]1C(=O)N2C(C(=O)O)=C(COC(N)=O)CS[C@H]12)c1ccco1` has a Ratio [1] of 0.1 and a Ratio [2] of 0.25.
For `CC1(C)S[C@@H]2[C@H](NC(=O)Cc3ccccc3)C(=O)N2[C@H]1C(=O)O`, the Ratio [1] was 11.8 and the Ratio [2] was 5.4.
`CC1(C)S[C@@H]2[C@H](NC(=O)[C@H](N)c3ccc(O)cc3)C(=O)N2[C@H]1C(=O)O` showed a Ratio [1] of 9.4.

Reference: ChEMBL document CHEMBL1649220, “New variant of CTX-M-type extended-spectrum beta-lactamases, CTX-M-71, with a Gly238Cys substitution in a Klebsiella pneumoniae isolate from Bulgaria” (2009)
